Measured values as given in US20230278972A1, “SUBSTITUTED HALOALKYL SULFONANILIDE HERBICIDES” (FMC Corporation, priority 2020, published 2023).

Assays:
Type in all cases: in vivo
[1] = tested on: barnyardgrass (Echinochloa crus-galli); experiment: Test A preemergence, barnyardgrass; conditions: Preemergence; for Plant response rating, Barnyardgrass: 0 to 100 scale (0 no effect, 100 complete control); for Barnyardgrass plant response rating: 125 g ai/ha, visual injury on 0 to 100 scale (0 no effect, 100 complete control), approximately 10 days
In short: (§1)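 Greenhouse pot test in a loam–sand blend; compounds delivered in a non-phytotoxic solvent carrying a surfactant, applied either as a directed spray to soil at seeding or over seedlings 2 to 10 cm high with one to two leaves.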

kochia (Bassia scoparia) [2] = experiment: Test A preemergence, kochia; conditions: Preemergence; for Plant response rating, Kochia: 0 to 100 scale (0 no effect, 100 complete control); for Kochia plant response rating: 125 g ai/ha, visual injury on 0 to 100 scale (0 no effect, 100 complete control), approximately 10 days
In short: as §1

[3] = tested on: ragweed (common ragweed, Ambrosia artemisiifolia); experiment: Test A preemergence, ragweed; conditions: Preemergence; for Plant response rating, Ragweed: 0 to 100 scale (0 no effect, 100 complete control); for Ragweed plant response rating: 125 g ai/ha, visual injury on 0 to 100 scale (0 no effect, 100 complete control), approximately 10 days
In short: as §1

[4] = tested on: Ryegrass, Italian (Italian ryegrass, Lolium multiflorum); experiment: Test A preemergence, Ryegrass, Italian; conditions: Preemergence; for Plant response rating, Ryegrass, Italian: 0 to 100 scale (0 no effect, 100 complete control); for Ryegrass, Italian plant response rating: 125 g ai/ha, visual injury on 0 to 100 scale (0 no effect, 100 complete control), approximately 10 days
In short: as §1

[5] = tested on: Foxtail, Giant (giant foxtail, Setaria faberi); experiment: Test A preemergence, Foxtail, Giant; conditions: Preemergence; for Plant response rating, Foxtail, Giant: 0 to 100 scale (0 no effect, 100 complete control); for Foxtail, Giant plant response rating: 125 g ai/ha, visual injury on 0 to 100 scale (0 no effect, 100 complete control), approximately 10 days
In short: as §1

[6] = tested on: pigweed (Amaranthus retroflexus); experiment: Test A preemergence, pigweed; conditions: for Plant response rating, Pigweed: 0 to 100 scale (0 no effect, 100 complete control); for Pigweed plant response rating: 125 g ai/ha, visual injury on 0 to 100 scale (0 no effect, 100 complete control), approximately 10 days
In short: (§2)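 Seeds are sown in loam mixed with sand and sprayed on the soil surface right after planting for the preemergence test. Postemergence pots are sprayed once seedlings reach 2 to 10 cm at the one- to two-leaf stage. The same surfactant-containing, non-phytotoxic solvent formulation serves both.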

[7] = tested on: barnyardgrass (Echinochloa crus-galli); experiment: Test A postemergence, barnyardgrass; conditions: Postemergence
In short: as §2

kochia (Bassia scoparia) [8] = experiment: Test A postemergence, kochia; conditions: Postemergence
In short: as §1

[9] = tested on: ragweed (common ragweed, Ambrosia artemisiifolia); experiment: Test A postemergence, ragweed; conditions: Postemergence
In short: as §1

[10] = tested on: Ryegrass, Italian (Italian ryegrass, Lolium multiflorum); experiment: Test A postemergence, Ryegrass, Italian; conditions: Postemergence
In short: as §1

[11] = tested on: Foxtail, Giant (giant foxtail, Setaria faberi); experiment: Test A postemergence, Foxtail, Giant; conditions: Postemergence
In short: as §1

[12] = tested on: pigweed (Amaranthus retroflexus); experiment: Test A postemergence, pigweed; conditions: Postemergence
In short: as §1

[13] = tested on: wheat (Triticum aestivum); experiment: Test A postemergence, wheat; conditions: Postemergence
In short: as §2

corn (Zea mays) = experiment: Test A postemergence, corn; conditions: Postemergence
In short: as §1

[14] = tested on: blackgrass (Alopecurus myosuroides); experiment: Test A postemergence, blackgrass; conditions: Postemergence
In short: as §1

[15] = tested on: galium (catchweed bedstraw, Galium aparine); experiment: Test A postemergence, galium; conditions: Postemergence
In short: as §2

[16] = 31 g ai/ha, visual injury, approx. 10 days
[17] = 31 g ai/ha, visual injury on 0 to 100 scale (0 no effect, 100 complete control), approx. 10 days
[18] = 125 g ai/ha, 0 to 100 scale (0 no effect, 100 complete control)
[19] = 500 g ai/ha, visual injury vs untreated controls after approx. 10 days, 0 to 100 scale (0 no effect, 100 complete control)

SMILES	Plant response rating, Barnyardgrass [1, 16]	Barnyardgrass plant response rating [1]	Plant response rating, Kochia (kochia (Bassia scoparia) [2]; [16])	Kochia plant response rating (kochia (Bassia scoparia) [2])	Plant response rating, Ragweed [3, 16]	Ragweed plant response rating [3]	Plant response rating, Ryegrass, Italian [4, 16]	Ryegrass, Italian plant response rating [4]	Foxtail, Giant plant response rating [5]	Pigweed plant response rating [6]	Plant response rating, Barnyardgrass [7, 18]	Plant response rating, Kochia (kochia (Bassia scoparia) [8]; [18])	Plant response rating, Ragweed [9, 18]	Plant response rating, Ryegrass, Italian [10, 18]	Plant response rating, Foxtail, Giant [11, 18]	Plant response rating, Pigweed [12, 18]	Plant response rating, Wheat [13, 18]	Plant response rating, Corn (corn (Zea mays); [18])	Plant response rating, Blackgrass [14, 18]	Plant response rating, Galium [15, 18]	further results
CCOC1CCCN(C(=O)c2cc(NS(=O)(=O)C(F)(F)F)c(C)cc2C)C1 (stereo not shown) [Compound 154]	0	50	0	40	50	80	20	70	90	100	70	30	20	0	20	60	70	10	20	80	Plant response rating, Foxtail, Giant [5, 16]: 60; Plant response rating, Pigweed [6, 16]: 20; Plant response rating, Barnyardgrass [7, 17]: 30; Plant response rating, Kochia (kochia (Bassia scoparia) [8]; [17]): 10; Plant response rating, Ragweed [9, 17]: 0; Plant response rating, Ryegrass, Italian [10, 17]: 0; Plant response rating, Foxtail, Giant [11, 17]: 20; Plant response rating, Pigweed [12, 17]: 40; Plant response rating, Wheat [13, 17]: 30; Plant response rating, Corn (corn (Zea mays); [17]): 0; Plant response rating, Blackgrass [14, 17]: 0; Plant response rating, Galium [15, 17]: 50
Cc1cc(C)c(C(=O)N2CCCC(F)C2)cc1NS(=O)(=O)C(F)(F)F (stereo not shown) [Compound 155]	50	90	30	40	90	80	80	80	80	100	90	60	80	90	30	90	60	90	30	90	Plant response rating, Foxtail, Giant [5, 16]: 50; Plant response rating, Pigweed [6, 16]: 90; Plant response rating, Barnyardgrass [7, 17]: 90; Plant response rating, Kochia (kochia (Bassia scoparia) [8]; [17]): 20; Plant response rating, Ragweed [9, 17]: 60; Plant response rating, Ryegrass, Italian [10, 17]: 40; Plant response rating, Foxtail, Giant [11, 17]: 20; Plant response rating, Pigweed [12, 17]: 80; Plant response rating, Wheat [13, 17]: 30; Plant response rating, Corn (corn (Zea mays); [17]): 50; Plant response rating, Blackgrass [14, 17]: 10; Plant response rating, Galium [15, 17]: 80
Cc1cc(C)c(N2CC3(CCOCC3)OC2=O)cc1NS(=O)(=O)C(F)(F)F [Compound 156]	70	100	30	50	60	90	50	70	100	100	90	70	90	10	70	90	40	20	40	100	Plant response rating, Foxtail, Giant [5, 16]: 50; Plant response rating, Pigweed [6, 16]: 80; Plant response rating, Barnyardgrass [7, 17]: 90; Plant response rating, Kochia (kochia (Bassia scoparia) [8]; [17]): 40; Plant response rating, Ragweed [9, 17]: 90; Plant response rating, Ryegrass, Italian [10, 17]: 0; Plant response rating, Foxtail, Giant [11, 17]: 30; Plant response rating, Pigweed [12, 17]: 60; Plant response rating, Wheat [13, 17]: 30; Plant response rating, Corn (corn (Zea mays); [17]): 0; Plant response rating, Blackgrass [14, 17]: 0; Plant response rating, Galium [15, 17]: 100
Cc1cc(C)c(N(S(=O)(=O)C(F)(F)F)S(=O)(=O)C(F)(F)F)cc1N1CC2(CCOCC2)OC1=O [Compound 157]	30	100	50	90	40	90	40	60	100	100	60	70	90	30	30	100	0	20	30	100	Plant response rating, Foxtail, Giant [5, 16]: 80; Plant response rating, Pigweed [6, 16]: 100; Plant response rating, Barnyardgrass [7, 17]: 20; Plant response rating, Kochia (kochia (Bassia scoparia) [8]; [17]): 10; Plant response rating, Ragweed [9, 17]: 70; Plant response rating, Ryegrass, Italian [10, 17]: 0; Plant response rating, Foxtail, Giant [11, 17]: 10; Plant response rating, Pigweed [12, 17]: 90; Plant response rating, Wheat [13, 17]: 0; Plant response rating, Corn (corn (Zea mays); [17]): 20; Plant response rating, Blackgrass [14, 17]: 30; Plant response rating, Galium [15, 17]: 90
Cc1cc(C)c(N(S(=O)(=O)C(F)(F)F)S(=O)(=O)C(F)(F)F)cc1C1=NOC2(CCCCCC2)C1 [Compound 158]	–	30	–	70	–	30	–	30	90	50	0	20	10	0	0	30	0	0	20	70	Plant response rating, Barnyardgrass ([1]; 500 g ai/ha): 100; Plant response rating, Kochia (kochia (Bassia scoparia) [2]; 500 g ai/ha): 80; Plant response rating, Ragweed ([3]; 500 g ai/ha): 40; Plant response rating, Ryegrass, Italian ([4]; 500 g ai/ha): 100; Plant response rating, Foxtail, Giant ([5]; 500 g ai/ha): 100; Plant response rating, Pigweed ([6]; 500 g ai/ha): 100; Barnyardgrass plant response rating [7, 19]: 20; Kochia plant response rating (kochia (Bassia scoparia) [8]; [19]): 30; Ragweed plant response rating [9, 19]: 20; Ryegrass, Italian plant response rating [10, 19]: 0; Foxtail, Giant plant response rating [11, 19]: 20; Pigweed plant response rating [12, 19]: 80; Wheat plant response rating [13, 19]: 0; Corn plant response rating (corn (Zea mays); [19]): 20; Blackgrass plant response rating [14, 19]: 0; Galium plant response rating [15, 19]: 90
